Two compounds from ChEMBL document CHEMBL1159329, “Microbial transformations of isosteviol” (2002) can be followed below.

In the assay the test system is Rattus norvegicus. The assay is described as follows: Antihypertensive activity in deoxy-corticosterone acetate-induced Sprague-Dawley rat assessed as reduction of blood pressure at 4.8 mg/kg, iv. Type of assay: functional.

Structures are written as SMILES.

In the case of `C[C@@]12CC[C@]3(O)[C@@](CC[C@@H]4[C@](C)(C(=O)O)CCC[C@]43C)(CC1=O)C2`, the Activity was determined as 7 mmHg.

On to `C[C@@]12CC[C@@H]3[C@@](CC[C@H]4[C@@]3(C)CCC[C@@]4(C)C(=O)O)(CC1=O)C2` [ISOSTEVIOL], for which the Activity is 12 mmHg.
